Our source for the Activity values is ChEMBL document CHEMBL1145677, “In Vitro Action of ent -Manoyl Oxides against Leishmania donovani” (1997).

Assay type in all cases: functional
The subject of experiment [1] is Leishmania donovani. Briefly: Antileishmanial activity against Leishmania donovani LCR-L133 promastigotes at 100 […] after 48 hrs relative to control.
The subject of experiment [2] is Leishmania donovani. Kind of experiment: Antileishmanial activity against Leishmania donovani LCR-L133 amastigotes at 100 ug/ml after 24 hrs relative to control.
Experiment [3] has as its system Leishmania donovani. Briefly: Antileishmanial activity against Leishmania donovani LCR-L133 promastigotes at 10 […] after 72 hrs relative to control.
Experiment [4] relates to Leishmania donovani. Kind of experiment: Antileishmanial activity against Leishmania donovani LCR-L133 promastigotes at 1 […] after 48 hrs relative to control.
Experiment [5] concerns Leishmania donovani. Kind of experiment: Antileishmanial activity against Leishmania donovani LCR-L133 promastigotes at 10 […] after 48 hrs relative to control.
Experiment [6] has as its system Leishmania donovani. Kind of experiment: Antileishmanial activity against Leishmania donovani LCR-L133 promastigotes at 1 […] after 24 hrs relative to control.
The test system of experiment [7] is Leishmania donovani. Kind of experiment: Antileishmanial activity against Leishmania donovani LCR-L133 amastigotes at 1 ug/ml after 24 hrs relative to control.
Experiment [8] deals with Leishmania donovani. Kind of experiment: Antileishmanial activity against Leishmania donovani LCR-L133 promastigotes at 100 […] after 24 hrs relative to control.
Experiment [9] deals with Leishmania donovani. Kind of experiment: Antileishmanial activity against Leishmania donovani LCR-L133 promastigotes at 10 […] after 24 hrs relative to control.
Experiment [10] concerns Leishmania donovani. Kind of experiment: Antileishmanial activity against Leishmania donovani LCR-L133 amastigotes at 100 ug/ml after 72 hrs relative to control.
For experiment [11], the system named is Leishmania donovani. Kind of experiment: Antileishmanial activity against Leishmania donovani LCR-L133 amastigotes at 10 ug/ml after 48 hrs relative to control.
The subject of experiment [12] is Leishmania donovani. Kind of experiment: Antileishmanial activity against Leishmania donovani LCR-L133 amastigotes at 10 ug/ml after 72 hrs relative to control.
The subject of experiment [13] is Leishmania donovani. Briefly: Antileishmanial activity against Leishmania donovani LCR-L133 amastigotes at 1 ug/ml after 48 hrs relative to control.
Experiment [14] relates to Leishmania donovani. Kind of experiment: Antileishmanial activity against Leishmania donovani LCR-L133 amastigotes at 10 ug/ml after 24 hrs relative to control.
Experiment [15] deals with Leishmania donovani. Briefly: Antileishmanial activity against Leishmania donovani LCR-L133 promastigotes at 100 […] after 72 hrs relative to control.
In experiment [16] the test system is Leishmania donovani. Kind of experiment: Antileishmanial activity against Leishmania donovani LCR-L133 amastigotes at 100 ug/ml after 48 hrs relative to control.
In experiment [17] the test system is Leishmania donovani. Briefly: Antileishmanial activity against Leishmania donovani LCR-L133 amastigotes at 1 ug/ml after 72 hrs relative to control.
Experiment [18] concerns Leishmania donovani. Briefly: Antileishmanial activity against Leishmania donovani LCR-L133 promastigotes at 1 […] after 72 hrs relative to control.

Turning to `C=C[C@]1(C)O[C@@]2(C)CC[C@@H]3C(C)(C)[C@H](O)CC[C@@]3(C)[C@@H]2C[C@H]1O` [VARODIOL], the Activity is listed as 63% in the experiment on Leishmania donovani [1]; 12% in the experiment with Leishmania donovani [2]; 0% in the experiment on Leishmania donovani [3]; 0% in the experiment on Leishmania donovani [4]; 0% in the experiment on Leishmania donovani [5]; 0% in the experiment with Leishmania donovani [6]. Also, the Activity with Leishmania donovani [7] was found to be 0%; with Leishmania donovani [8], 0%; in the experiment on Leishmania donovani [9], 0%; with Leishmania donovani [10] it was 33%; with Leishmania donovani [11], 7%; in the experiment on Leishmania donovani [12], 12%. Moreover, the Activity with Leishmania donovani [13] was determined as 0%; with Leishmania donovani [14], 0%; in the experiment on Leishmania donovani [15], 0%; in the experiment with Leishmania donovani [16], 29%; in the experiment with Leishmania donovani [17] it was 0%; with Leishmania donovani [18] it was 0%.

Regarding `C=C[C@]1(CO)CC[C@H]2[C@]3(C)CCC(=O)[C@](C)(C(=O)OC)[C@H]3CC[C@]2(C)O1`, the Activity in the experiment with Leishmania donovani [1] is 22%; in the experiment with Leishmania donovani [2], 9%; with Leishmania donovani [3], 0%; in the experiment on Leishmania donovani [4] it was 0%; in the experiment with Leishmania donovani [5], 0%; in the experiment with Leishmania donovani [6] it was 0%. The Activity came out at 0% with Leishmania donovani [7]; 0% in the experiment on Leishmania donovani [8]; 0% with Leishmania donovani [9]; 19% in the experiment with Leishmania donovani [10]; 0% with Leishmania donovani [11]; 0% with Leishmania donovani [12]. In addition, the Activity is 0% in the experiment on Leishmania donovani [13]; 0% in the experiment with Leishmania donovani [14]; 34% with Leishmania donovani [15]; 14% in the experiment with Leishmania donovani [16]; 0% in the experiment on Leishmania donovani [17]; 0% in the experiment with Leishmania donovani [18].
